Consider ten molecules from ChEMBL document CHEMBL1201862, “PubChem BioAssay data set” (2004).

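Cells were grown in 96-well plates and exposed to each compound for 48 hours at five concentrations; endpoints were interpolated linearly between bracketing concentrations, or set to the highest concentration if not reached. Here, GI50 denotes the concentration required for 50% inhibition of growth.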 The source made the active and inactive calls. Rule as the data show it: active = GI50 up to about 1.1 µM and inactive = higher. Where only a bound is given, the exact number is not on record here.

Among the test systems are 786-0; BT-549; CAKI-1; DU-145; HCC 2998; Hs-578T; K562; KM12; LOX IMVI; NCI/ADR-RES; RPMI-8226; RXF 393; SF-539; SK-MEL-2; SK-OV-3; SNB-19; SNB-75; UACC-62; UO-31.
Holding throughout (assay): NCI tumour cell line growth inhibition, 48 h

Take `O=C(/C=N/O)Nc1cc(Cl)c(Cl)cc1Cl`: the GI50 in the assay on 786-0 was 37.4 µM (inactive); in the assay on BT-549, 27.2 µM (inactive); in the assay on CAKI-1, 24.3 µM (inactive); with DU-145 it was 31.9 µM (inactive); in the assay with HCC 2998 it was 26.6 µM (inactive); in the assay on Hs-578T, 29.2 µM (inactive). Also, the GI50 in the assay with K562 is 25.6 µM (inactive); in the assay with KM12 it was 26.5 µM (inactive); with LOX IMVI, 33.8 µM (inactive); in the assay with NCI/ADR-RES it was 33.9 µM (inactive); in the assay on RPMI-8226, 27.9 µM (inactive); in the assay with RXF 393, 31.5 µM (inactive). For the same molecule, the GI50 was 31.6 µM (inactive) in the assay on SF-539; 24.9 µM (inactive) in the assay with SK-MEL-2; 27.8 µM (inactive) in the assay with SK-OV-3; 50.5 µM (inactive) in the assay with SNB-19; 20.7 µM (inactive) in the assay with SNB-75; 25.9 µM (inactive) in the assay with UACC-62. Further, the GI50 in the assay with UO-31 is 41.9 µM (inactive).
`COc1cc(C=C2C(=O)NC(=S)NC2=O)cc(OC)c1OC`: the GI50 in the assay with 786-0, with BT-549, in the assay with CAKI-1, in the assay on DU-145, in the assay with HCC 2998 and in the assay with Hs-578T was > 100 µM (inactive) each time. Besides, the GI50 with K562, in the assay on KM12, in the assay with LOX IMVI, with NCI/ADR-RES, in the assay on RPMI-8226 and in the assay on RXF 393 was > 100 µM (inactive) each time. Further, the GI50 in the assay with SF-539 is > 100 µM (inactive); in the assay on SK-MEL-2, > 100 µM (inactive); with SK-OV-3 it was > 100 µM (inactive); with SNB-19, > 100 µM (inactive); in the assay with SNB-75 it was 60.7 µM (inactive); in the assay with UACC-62, > 100 µM (inactive). Also, the GI50 in the assay on UO-31 was > 100 µM (inactive).
On to `O=C1c2cccc3cccc(c23)C(=O)N1CCCNCCCCNCCCN1C(=O)c2cccc3cccc(c23)C1=O`, for which the GI50 in the assay on 786-0 is 0.0311 µM (active); with BT-549, 1.25 µM (inactive); with CAKI-1, 0.857 µM (active); in the assay with DU-145, 0.0887 µM (active); in the assay with HCC 2998 it was 0.0755 µM (active); with Hs-578T, 0.0401 µM (active). Besides, the GI50 in the assay on K562 was 0.0226 µM (active); with KM12, 0.108 µM (active); in the assay with LOX IMVI, 0.0229 µM (active); with NCI/ADR-RES it was 14.5 µM (inactive); in the assay on RPMI-8226 it was < 0.0205 µM (active); in the assay with RXF 393, 0.0933 µM (active). In addition, the GI50 with SF-539 is 0.0843 µM (active); in the assay with SK-MEL-2, 0.521 µM (active); in the assay with SK-OV-3, 0.982 µM (active); in the assay on SNB-19 it was 0.124 µM (active); in the assay with SNB-75, 0.202 µM (active); in the assay with UACC-62 it was 0.337 µM (active). Also, the GI50 with UO-31 was 2.26 µM (inactive).
For `CCOC(=O)c1c(CN2CCNCC2)nc2ccccc2c1-c1ccccc1`, the GI50 in the assay with 786-0 is 12.7 µM (inactive); in the assay on BT-549, 17.2 µM (inactive); in the assay with CAKI-1, 12.2 µM (inactive); with DU-145 it was 17.5 µM (inactive); with HCC 2998, 1.9 µM (inactive); in the assay on Hs-578T, 16.1 µM (inactive). In addition, the GI50 is 12.6 µM (inactive) in the assay on K562; 15.6 µM (inactive) in the assay on KM12; 15.8 µM (inactive) with LOX IMVI; 16.2 µM (inactive) in the assay with NCI/ADR-RES; 14.4 µM (inactive) in the assay on RPMI-8226; 2.92 µM (inactive) with RXF 393. For the same molecule, the GI50 is 16.8 µM (inactive) with SF-539; 15.6 µM (inactive) with SK-MEL-2; 16.5 µM (inactive) in the assay on SK-OV-3; 17.5 µM (inactive) with SNB-19; 7.03 µM (inactive) with SNB-75; 15 µM (inactive) in the assay with UACC-62. Further, the GI50 in the assay with UO-31 was 7.28 µM (inactive).
For `CCOC(=O)COC1=Nc2cc(OC)c(OC)c3nc(Cl)cc(c23)C1=O`, the GI50 in the assay with 786-0 was 1.62 µM (inactive); in the assay on BT-549 it was 1.95 µM (inactive); with CAKI-1, 1.96 µM (inactive); in the assay on DU-145, 1.82 µM (inactive); with HCC 2998, 5.5 µM (inactive); with Hs-578T, 2.77 µM (inactive). Also, the GI50 in the assay on K562 was 1.2 µM (inactive); in the assay with KM12 it was 14.8 µM (inactive); in the assay on LOX IMVI, 1.98 µM (inactive); in the assay with NCI/ADR-RES it was 2.97 µM (inactive); in the assay with RPMI-8226, 1.52 µM (inactive); in the assay on RXF 393 it was 1.75 µM (inactive). For the same molecule, the GI50 in the assay with SF-539 is 1.92 µM (inactive); with SK-MEL-2 it was 2 µM (inactive); with SK-OV-3, 10.1 µM (inactive); with SNB-19 it was 6.08 µM (inactive); in the assay on SNB-75, 2.51 µM (inactive); in the assay with UACC-62, 1.78 µM (inactive). The GI50 in the assay on UO-31 is 1.84 µM (inactive).
`c1ccc2c(c1)cc1n2CCc2c-1[nH]c1ccccc21`: the GI50 in the assay on 786-0, in the assay with BT-549, with CAKI-1, with DU-145, in the assay with HCC 2998 and with Hs-578T was > 10 µM (inactive) throughout. Also, the GI50 in the assay on K562, in the assay on KM12, in the assay with LOX IMVI, in the assay on NCI/ADR-RES, in the assay with RPMI-8226 and in the assay with RXF 393 was > 10 µM (inactive) throughout. Further, the GI50 in the assay with SF-539, in the assay on SK-MEL-2, in the assay with SK-OV-3, in the assay on SNB-19, in the assay on SNB-75 and in the assay on UACC-62 was > 10 µM (inactive) throughout. Besides, the GI50 in the assay on UO-31 was > 10 µM (inactive).
Take `CC(C)C1/C(=N/O)CC(c2ccccc2)N(N=O)C1c1ccccc1` (stereo not given): the GI50 in the assay on 786-0 was 31.1 µM (inactive); in the assay on BT-549 it was 50.2 µM (inactive); in the assay on CAKI-1, 19.2 µM (inactive); in the assay with DU-145, 34 µM (inactive); with HCC 2998, 37.2 µM (inactive); in the assay with Hs-578T, 17.5 µM (inactive). Also, the GI50 in the assay on K562 was 35.5 µM (inactive); in the assay on KM12 it was 31.8 µM (inactive); with LOX IMVI it was 28.8 µM (inactive); in the assay with NCI/ADR-RES it was 35.1 µM (inactive); in the assay on RPMI-8226 it was 45.4 µM (inactive); with RXF 393 it was 20.9 µM (inactive). The GI50 in the assay with SF-539 was 57.8 µM (inactive); in the assay on SK-MEL-2 it was 24.5 µM (inactive); with SK-OV-3, 24.8 µM (inactive); in the assay with SNB-19, > 100 µM (inactive); in the assay with SNB-75, 38.8 µM (inactive); with UACC-62, 19.7 µM (inactive). For the same molecule, in the assay with UO-31, the GI50 was 33.3 µM (inactive).
As to `CCOP(=O)(OCC)/C(C#N)=C/c1ccc(-c2ccc(F)cc2F)o1`, the GI50 in the assay on 786-0 is 13.9 µM (inactive); in the assay on BT-549, 11.7 µM (inactive); in the assay on CAKI-1, 15.3 µM (inactive); in the assay on DU-145, 27.2 µM (inactive); in the assay on HCC 2998 it was 14 µM (inactive); with Hs-578T, > 10 µM (inactive). The GI50 is 12.2 µM (inactive) with K562; 16 µM (inactive) in the assay with KM12; 13.3 µM (inactive) in the assay with LOX IMVI; 22.1 µM (inactive) with NCI/ADR-RES; 18.4 µM (inactive) with RPMI-8226; 29 µM (inactive) with RXF 393. Also, the GI50 is 20.7 µM (inactive) with SF-539; 23.5 µM (inactive) in the assay on SK-MEL-2; 14 µM (inactive) with SK-OV-3; 16.9 µM (inactive) in the assay on SNB-19; 18.5 µM (inactive) in the assay with SNB-75; 11.3 µM (inactive) in the assay with UACC-62. For the same molecule, the GI50 in the assay with UO-31 is 13.1 µM (inactive).
Regarding `CC1=CC(C)C/C=C/C2C3OC3(C)C(C)C3C(Cc4c[nH]c5ccccc45)NC(=O)C23C(=O)C=CC(=O)C1O` (stereo not given), the GI50 was 3.25 µM (inactive) with 786-0; 4.56 µM (inactive) in the assay on BT-549; 0.885 µM (active) in the assay with CAKI-1; 14.1 µM (inactive) in the assay on DU-145; 2.6 µM (inactive) with HCC 2998; 3.72 µM (inactive) with Hs-578T. The GI50 with K562 is 3.06 µM (inactive); in the assay with KM12, 15.2 µM (inactive); in the assay on LOX IMVI, 2.88 µM (inactive); in the assay on NCI/ADR-RES it was 24.3 µM (inactive); in the assay with RPMI-8226, 0.272 µM (active); in the assay on RXF 393 it was 1.38 µM (inactive). Also, the GI50 is 6.97 µM (inactive) in the assay with SF-539; 15.8 µM (inactive) in the assay on SK-MEL-2; 12.4 µM (inactive) in the assay on SK-OV-3; 11 µM (inactive) in the assay on SNB-19; 0.728 µM (active) in the assay with SNB-75; 15.2 µM (inactive) in the assay with UACC-62. In addition, the GI50 with UO-31 is 1.96 µM (inactive).
With `COC(O)C12OC3CO[Si](C(C)C)(C(C)C)O[Si](C(C)C)(C(C)C)OC3C1Oc1nc(=O)ccn12` (stereo not given), the GI50 with 786-0 was 15.2 µM (inactive); with BT-549, 15.5 µM (inactive); in the assay on CAKI-1, 18.2 µM (inactive); in the assay on DU-145 it was 16.3 µM (inactive); with HCC 2998 it was 3.94 µM (inactive); in the assay on Hs-578T, 2.67 µM (inactive). Moreover, the GI50 was 1.52 µM (inactive) in the assay with K562; 5.61 µM (inactive) in the assay with KM12; 12.7 µM (inactive) in the assay on LOX IMVI; 21.6 µM (inactive) with NCI/ADR-RES; 1 µM (active) with RPMI-8226; 11.9 µM (inactive) with RXF 393. Besides, the GI50 in the assay with SF-539 was 15.7 µM (inactive); in the assay with SK-MEL-2 it was 12 µM (inactive); in the assay on SK-OV-3, 17.7 µM (inactive); in the assay with SNB-19 it was 14.4 µM (inactive); with SNB-75, 26.2 µM (inactive); in the assay on UACC-62, 11 µM (inactive). Further, the GI50 in the assay on UO-31 was 15.8 µM (inactive).
